This note sets out measurements from patent publication US8802720B2, “Acylamino-substituted fused cyclopentanecarboxylic acid derivatives and their use as pharmaceuticals” (SANOFI, priority 2008, dated 2014).

Some results are limits rather than exact numbers.

human Edg-2 receptor (LPA1 receptor), sequence (Q92633 whole entry): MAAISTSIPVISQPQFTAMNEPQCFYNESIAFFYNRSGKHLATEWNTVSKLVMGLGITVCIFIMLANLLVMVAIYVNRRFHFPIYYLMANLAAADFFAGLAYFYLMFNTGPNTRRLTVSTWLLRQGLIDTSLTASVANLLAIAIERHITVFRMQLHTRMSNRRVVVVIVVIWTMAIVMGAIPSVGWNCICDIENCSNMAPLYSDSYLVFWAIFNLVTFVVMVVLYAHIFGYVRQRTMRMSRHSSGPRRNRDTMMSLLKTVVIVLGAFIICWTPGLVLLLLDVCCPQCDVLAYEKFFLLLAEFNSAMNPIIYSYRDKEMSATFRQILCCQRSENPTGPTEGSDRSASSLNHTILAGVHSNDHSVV

In this assay the target is human Edg-2 receptor (LPA1 receptor) (Homo sapiens, UniProt Q92633). Description: Edg-2 receptor inhibition by FLIPR calcium fluorescence measurement (LPA-mediated calcium liberation). It counts as cell-based. The conditions noted are these: CHO cells stably overexpressing human Edg-2 receptor; LPA 18:1 100 nM; fluo-4 fluorescence; triplicate; read-out: Inhibitory concentrations IC50 for inhibition of the Edg-2 receptor. The essentials:
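CHO cells stably overexpressing human Edg-2 were fluo-4 loaded and pre-incubated ~5 min with compound (≤0.3% DMSO) in HBSS/HEPES/probenecid, pH 7.5. Then LPA 18:1 at 100 nM final was added. Peak calcium fluorescence over ~3 min, baseline-corrected versus DMSO, gave % inhibition in triplicate and IC50.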
`COc1c(F)cc(C(=O)NC2(C(=O)O)Cc3ccccc3C2)cc1OCCc1cccc(CCO)c1` [Example 276, 2-(3-Fluoro-5-{2-[3-(2-hydroxy-ethyl)-phenyl]-ethoxy}-4-methoxy-benzoylamino)-indane-2-carboxylic acid]: the IC50 is < 0.1 µM. For the compound `COc1ccc(C(=O)NC2(C(=O)O)Cc3ccccc3C2)cc1OCCc1cc(-c2ccc(Cl)cc2)no1` [Example 54], the IC50 lay within 1 to 30 µM. As to `Cc1cccc(CCOc2cc(C(=O)NC3(C(=O)O)Cc4ccccc4C3)ccc2OC(C)C)c1` [Example 255, 2-[4-Isopropoxy-3-(2-m-tolyl-ethoxy)-benzoylamino]-indane-2-carboxylic acid], the IC50 is < 0.1 µM. In the case of `Cc1cccc(CCOc2cc(C(=O)NC3(C(=O)O)Cc4ccccc4C3)ccc2OCCO)c1` [Example 270, 2-[4-(2-Hydroxy-ethoxy)-3-(2-m-tolyl-ethoxy)-benzoylamino]-indane-2-carboxylic acid], the IC50 is < 0.1 µM. In the case of `COc1ccc(C(=O)NC2(C(=O)O)Cc3ccccc3C2)cc1OCc1ccc(-n2ccnc2)cc1` [Example 73], the IC50 is 1 to 30 µM. For `COc1ccc(C(=O)NC2(C(=O)O)Cc3ccccc3C2)cc1OCCc1cccc([S+](C)[O-])c1` (stereo not shown) [Example 17, 2-{3-[2-(3-Methanesulfinyl-phenyl)-ethoxy]-4-methoxy-benzoylamino}-indane-2-carboxylic acid] the value was 1 to 30 µM. As for `COc1ccc(C(=O)NC2(C(=O)O)Cc3ccccc3C2)cc1OCCCCC(C)C` [Example 59], the IC50 was in the range of 1 to 30 µM. Take `COc1ncc(C(=O)NC2(C(=O)O)Cc3ccccc3C2)cc1-c1cccc(NS(=O)(=O)N(C)C)c1` [Example 231]: the IC50 was < 0.1 µM. In the case of `COc1ccc(C(=O)NC2(C(=O)O)Cc3ccccc3C2)cc1CCOc1cccc(C)c1` [Example 115, 2-[4-Methoxy-3-(2-m-tolyloxy-ethyl)-benzoylamino]-indane-2-carboxylic acid], the IC50 fell in the range of 1 to 30 µM. With `COc1c(OCCc2cccc(C)c2)cc(C(=O)NC2(C(=O)O)Cc3ccccc3C2)cc1[N+](=O)[O-]` [Example 107, 2-[4-Methoxy-3-nitro-5-(2-m-tolyl-ethoxy)-benzoylamino]-indane-2-carboxylic acid], the IC50 was 1 to 30 µM. For `COc1ccc(C(=O)NC2(C(=O)O)Cc3ccccc3C2)cc1OCCc1cc(C(F)(F)F)ccc1F` [Example 154], the IC50 is < 0.1 µM.

For `COc1ccc(C(=O)NC2(C(=O)O)Cc3ccccc3C2)cc1OCC1CC=CCC1` (stereo not shown) [Example 50], the IC50 is 0.1 to 1 µM. Consider `COc1ccc(C(=O)NC2(C(=O)O)Cc3ccccc3C2)cc1OCCc1ccccn1` [Example 148], for which the IC50 lay in the range of 1 to 30 µM. Take `COc1ccc(C(=O)NC2(C(=O)O)Cc3ccccc3C2)cc1OCCCN1CCCC1=O` [Example 68]: the IC50 lay in the range of 1 to 30 µM. For `COc1ccc(C(=O)NC2(C(=O)O)Cc3ccccc3C2)cc1-c1cccc(S(C)(=O)=O)c1` [Example 309], the IC50 was 0.1 to 1 µM. As for `CNC(=O)c1cccc(-c2cc(C(=O)NC3(C(=O)O)Cc4ccccc4C3)ccc2OC)c1` [Example 323], the IC50 is 1 to 30 µM. Consider `Cc1cccc(CCOc2cc(C(=O)NC3(C(=O)O)Cc4ccccc4C3)ccc2OC2CC2)c1` [Example 272, 2-[4-Cyclopropoxy-3-(2-m-tolyl-ethoxy)-benzoylamino]-indane-2-carboxylic acid], for which the IC50 lay in the range of 0.1 to 1 µM. Then `COc1ccc(C(=O)NC2(C(=O)O)Cc3ccccc3C2)cc1OC/C=C/c1ccccc1` [Example 45], with 1 to 30 µM; and `Cc1cccc(CCOc2cccc(C(=O)NC3(C(=O)O)Cc4ccccc4C3)c2)c1` [Example 141], with 1 to 30 µM; and `COc1ccc(C(=O)NC2(C(=O)O)Cc3cccc(F)c3C2)cc1OCCc1cccc(C)c1` (stereo not shown) [Example 215, 4-Fluoro-2-[4-methoxy-3-(2-m-tolyl-ethoxy)-benzoylamino]-indane-2-carboxylic acid], with < 0.1 µM.

On to `COc1ccc(C(=O)NC2(C(=O)O)Cc3ccccc3C2)cc1-c1cc(C)cs1` [Example 300], for which the IC50 was in the range of 0.1 to 1 µM. Then `COc1ccc(C(=O)NC2(C(=O)O)Cc3ccccc3C2)cc1OCCc1ccccc1Cl` [Example 149], with < 0.1 µM; and `COc1ccc(C(=O)NC2(C(=O)O)Cc3ccccc3C2)cc1-c1cc(OC(C)C)ccc1F` [Example 336], with 1 to 30 µM; and `COc1ccc(C(=O)NC2(C(=O)O)Cc3ccc(F)cc3C2)cc1OCCc1cccc(C)c1` (stereo not shown) [Example 157, 5-Fluoro-2-[4-methoxy-3-(2-m-tolyl-ethoxy)-benzoylamino]-indane-2-carboxylic acid], with < 0.1 µM.

Take `COc1ccc(C(=O)NC2(C(=O)O)Cc3ccccc3C2)cc1OCCc1ccccc1C(F)(F)F` [Example 47]: the IC50 is 1 to 30 µM. Take `COc1ccc(C(=O)NC2(C(=O)O)Cc3ccccc3C2)cc1-c1csc2ccccc12` [Example 295]: the IC50 is < 0.1 µM. Then `COc1ccc(C(=O)NC2(C(=O)O)Cc3ccccc3C2)cc1-c1cccc(CC#N)c1` [Example 199, 2-[(3′-cyanomethyl-6-methoxy-biphenyl-3-carbonyl)-amino]-indane-2-carboxylic acid], with < 0.1 µM; and `COc1ccc(C(=O)NC2(C(=O)O)Cc3ccccc3C2)cc1OCCCC(C)C` [Example 43], with 1 to 30 µM. Consider `COc1ccc(C(=O)NC2(C(=O)O)Cc3ccc(Br)cc3C2)cc1OCCc1cccc(C)c1` (stereo not shown) [Example 156, 5-Bromo-2-[4-methoxy-3-(2-m-tolyl-ethoxy)-benzoylamino]-indane-2-carboxylic acid], for which the IC50 was < 0.1 µM. For `COc1ccc(C(=O)NC2(C(=O)O)Cc3ccccc3C2)cc1-c1ccccc1CN(C)C` [Example 299] the value was 1 to 30 µM. Consider `Cc1nccnc1CCOc1cc(C(=O)NC2(C(=O)O)Cc3ccccc3C2)ccc1C(F)(F)F` [Example 190], for which the IC50 lay in the range of 1 to 30 µM.

Take `COc1ccc(C(=O)NC2(C(=O)O)Cc3ccccc3C2)cc1OCCC1CCCCC1` [Example 30]: the IC50 lay within 1 to 30 µM. As to `CCc1sc(C(=O)NC2(C(=O)O)Cc3ccccc3C2)nc1OCCc1cccc(C)c1` [Example 273, 2-{[5-Ethyl-4-(2-m-tolyl-ethoxy)-thiazole-2-carbonyl]-amino}-indane-2-carboxylic acid], the IC50 lay in the range of 0.1 to 1 µM. On to `COc1ncc(C(=O)NC2(C(=O)O)Cc3ccccc3C2)cc1-c1cccc(Cl)c1Cl` [Example 228], for which the IC50 is < 0.1 µM. Turning to `COc1ccc(C(=O)NC2(C(=O)O)Cc3ccccc3C2)c(F)c1OCCc1cccc(C)c1` [Example 277, 2-[2-Fluoro-4-methoxy-3-(2-m-tolyl-ethoxy)-benzoylamino]-indane-2-carboxylic acid], the IC50 lay within 1 to 30 µM.

On to `CC(=O)c1ccc(C(=O)NC2(C(=O)O)Cc3ccccc3C2)cc1OCCc1cccc(C)c1` [Example 8, 2-[4-Acetyl-3-(2-m-tolyl-ethoxy)-benzoylamino]-indane-2-carboxylic acid], for which the IC50 fell in the range of 0.1 to 1 µM. In the case of `COc1ccc(C(=O)NC2(C(=O)O)Cc3ccccc3C2)cc1S(=O)(=O)CCc1cccc(Cl)c1` [Example 184, 2-{3-[2-(3-Chloro-phenyl)-ethanesulfonyl]-4-methoxy-benzoylamino}-indane-2-carboxylic acid], the IC50 was in the range of 1 to 30 µM. With `COc1ccc(C(=O)NC2(C(=O)O)Cc3c(F)ccc(F)c3C2)cc1OCCc1cccc(C)c1` [Example 214, 4,7-Difluoro-2-[4-methoxy-3-(2-m-tolyl-ethoxy)-benzoylamino]-indane-2-carboxylic acid], the IC50 is < 0.1 µM. For `COc1ccc(C(=O)NC2(C(=O)O)Cc3ccccc3C2)cc1NCCc1ccccc1` [Example 122, 2-[3-[2-phenyl-ethylamino)-4-methoxy-benzoylamino)-indane-2-carboxylic acid] the value was 0.1 to 1 µM; for `Cc1cccc(CCOc2cc(C(=O)NC3(C(=O)O)Cc4ccccc4C3)ccc2OCCN(C)C)c1` [Example 265], 0.1 to 1 µM; for `COc1ccc(C(=O)NC2(C(=O)O)Cc3ccccc3C2)cc1NC(=O)Cc1cccc(Br)c1` [Example 118], 1 to 30 µM. `CSCCOc1ccc(C(=O)NC2(C(=O)O)Cc3ccccc3C2)cc1OCCc1cccc(C)c1` [Example 267]: the IC50 is < 0.1 µM.

As for `COc1ccc(C(=O)NC2(C(=O)O)Cc3ccccc3C2)cc1-c1ccc(Cl)c(C(F)(F)F)c1` [Example 310], the IC50 fell in the range of 0.1 to 1 µM. `COc1ccc(C(=O)NC2(C(=O)O)Cc3ccccc3C2)cc1OCc1ncc(C)c(NC(C)=O)c1C` [Example 77]: the IC50 is 1 to 30 µM. Turning to `COc1ccc(C(=O)NC2(C(=O)O)Cc3ccccc3C2)cc1OCCc1ccccc1` [Example 130], the IC50 was < 0.1 µM. Then `C=CC1CN2CCC1CC2COc1cc(C(=O)NC2(C(=O)O)Cc3ccccc3C2)ccc1OC` (stereo not shown) [Example 58], with 1 to 30 µM. Regarding `COc1ccc(C(=O)NC2(C(=O)O)Cc3ccccc3C2)cc1OS(=O)(=O)c1ccc(C)cc1` [Example 110], the IC50 was 1 to 30 µM. `Cc1cccc(CCOc2cc(C(=O)NC3(C(=O)O)Cc4ccccc4C3)ccc2OCC2CCCCC2)c1` [Example 257]: the IC50 was < 0.1 µM. For `Cc1cccc(CCOc2cc(C(=O)NC3(C(=O)O)Cc4ccccc4C3)ccc2NC(C)C)c1` [Example 166, 2-[4-Isopropylamino-3-(2-m-tolyl-ethoxy)-benzoylamino]-indane-2-carboxylic acid] the value was 0.1 to 1 µM; for `COc1ccc(C(=O)NC2(C(=O)O)Cc3ccccc3C2)cc1OC(C)Cc1ccccc1` (stereo not shown) [Example 142], 1 to 30 µM. For the compound `COc1ccc(C(=O)NC2(C(=O)O)Cc3cccc(Cl)c3C2)cc1OCCc1cccc(C)c1` (stereo not shown) [Example 217, 4-Chloro-2-[4-methoxy-3-(2-m-tolyl-ethoxy)-benzoylamino]-indane-2-carboxylic acid], the IC50 is < 0.1 µM. Regarding `COc1ccc(C(=O)NC2(C(=O)O)Cc3ccccc3C2)cc1OCc1cc(C)n(C)n1` [Example 80], the IC50 is 1 to 30 µM.
